Calls of active or inactive are those of the source. The calls are words filed in the database; no cut-off is given here.
Tested on: not listed separately
Assay: Antiproliferative activity against human Osimertinib-resistant NCI-H1975 cell incubated for 72 hrs by MTT assay
Format: functional, cell-based
Conditions: NCI-H1975, 72 h

SMILES | IC50 [nM]
C=CC(=O)Nc1cc(Nc2nccc(-c3cn(C)c4ccccc34)n2)c(OC)cc1N(C)CCN(C)C [OSIMERTINIB] | 4690
COc1cc(F)ccc1-c1ncnc(Nc2cccc(C[S@](C)(=N)=O)c2)n1 [ATUVECICLIB] | 1080

Tested on: not listed separately
Assay: Induction of apoptosis in human Osimertinib-resistant NCI-H1975 cell assessed as necrotic cells at 125 nM measured after 16 hrs by Annexin V-FITC and PI staining based analysis (reference value: 0.50%)
Format: functional
Conditions: not given

SMILES | Activity [%]
C=CC(=O)Nc1cc(Nc2nccc(-c3cn(C)c4ccccc34)n2)c(OC)cc1N(C)CCN(C)C [OSIMERTINIB] | 3.25

Tested on: not listed separately
Assay: Induction of apoptosis in human Osimertinib-resistant NCI-H1975 cell assessed as late apoptotic cells at 125 nM measured after 16 hrs by Annexin V-FITC and PI staining based analysis (Rvb =2.84%)
Format: functional
Conditions: not given

SMILES | Activity [%]
C=CC(=O)Nc1cc(Nc2nccc(-c3cn(C)c4ccccc34)n2)c(OC)cc1N(C)CCN(C)C [OSIMERTINIB] | 1.8

Molecular target: Receptor-type tyrosine-protein kinase FLT3 (Homo sapiens) (UniProt P36888)
Assay: Inhibition of FLT3 (unknown origin) at 100 nM preincubated for 10 mins followed by substrate addition and measured after 60 mins in presence of ATP by ADP-Glo reagent based assay relative to control
Conditions: time 70.0 min

Sequence of Receptor-type tyrosine-protein kinase FLT3 (Homo sapiens) (P36888 whole entry): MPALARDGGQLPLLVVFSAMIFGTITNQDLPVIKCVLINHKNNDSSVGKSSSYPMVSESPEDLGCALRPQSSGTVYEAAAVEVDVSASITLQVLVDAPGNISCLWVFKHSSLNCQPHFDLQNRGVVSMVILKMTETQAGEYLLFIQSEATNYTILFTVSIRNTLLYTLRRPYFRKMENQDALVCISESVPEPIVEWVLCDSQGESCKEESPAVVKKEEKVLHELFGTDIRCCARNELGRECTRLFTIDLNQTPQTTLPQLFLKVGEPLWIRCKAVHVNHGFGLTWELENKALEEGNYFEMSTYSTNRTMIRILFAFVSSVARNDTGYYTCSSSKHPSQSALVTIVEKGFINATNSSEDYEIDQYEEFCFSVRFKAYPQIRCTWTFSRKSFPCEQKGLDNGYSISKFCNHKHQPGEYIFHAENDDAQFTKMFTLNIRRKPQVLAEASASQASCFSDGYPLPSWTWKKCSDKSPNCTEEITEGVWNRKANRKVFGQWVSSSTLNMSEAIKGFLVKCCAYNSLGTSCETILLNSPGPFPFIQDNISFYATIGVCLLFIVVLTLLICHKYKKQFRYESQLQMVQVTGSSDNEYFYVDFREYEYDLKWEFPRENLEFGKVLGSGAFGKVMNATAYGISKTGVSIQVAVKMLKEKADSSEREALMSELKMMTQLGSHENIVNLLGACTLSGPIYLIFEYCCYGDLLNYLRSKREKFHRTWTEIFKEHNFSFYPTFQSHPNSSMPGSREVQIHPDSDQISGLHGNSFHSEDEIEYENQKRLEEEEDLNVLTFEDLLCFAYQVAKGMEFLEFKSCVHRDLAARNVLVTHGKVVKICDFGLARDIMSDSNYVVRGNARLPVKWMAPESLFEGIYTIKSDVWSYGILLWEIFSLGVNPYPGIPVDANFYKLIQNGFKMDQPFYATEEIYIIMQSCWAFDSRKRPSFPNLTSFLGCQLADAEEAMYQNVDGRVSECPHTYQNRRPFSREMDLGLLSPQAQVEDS

SMILES | inhibition [%]
O=C(NCCN1CCOCC1)c1ccc2cc1OCCOCCOc1cc(ccc1F)-c1nc(ncc1F)N2 | 68.7
O=C(NCCN1CCOCC1)c1ccc2cc1OCCCCCOc1cc(ccc1F)-c1nc(ncc1F)N2 | 62.8

Tested on: HCC827
Assay: Antiproliferative activity against human HCC827 cells incubated for 72 hrs by MTT assay
Format: functional, cell-based
Conditions: HCC827, 72 h

SMILES | IC50 [nM]
O=C(NCCN1CCOCC1)c1ccc2cc1OCCOCCOc1cc(ccc1F)-c1nc(ncc1F)N2 | 52
O=C(NCCN1CCOCC1)c1ccc2cc1OCCCCCOc1cc(ccc1F)-c1nc(ncc1F)N2 | 267
C=CC(=O)Nc1cc(Nc2nccc(-c3cn(C)c4ccccc34)n2)c(OC)cc1N(C)CCN(C)C [OSIMERTINIB] | 57

Tested on: not listed separately
Assay: Antiproliferative activity against human Osimertinib-resistant NCI-H1975 cell assessed as cell growth inhibition at 125 nM incubated for 72 hrs by MTT assay relative to control
Format: functional
Design: scale not given: the % may be the effect or the level left
Conditions: not given

SMILES | Activity [%]
C=CC(=O)Nc1cc(Nc2nccc(-c3cn(C)c4ccccc34)n2)c(OC)cc1N(C)CCN(C)C [OSIMERTINIB] | 10

Tested on: NCI-H1975
Assay: Downregulation of Mcl-1 level in human Osimertinib-resistant NCI-H1975 cell at 2 uM measured after 8 hrs by Western blotting analysis
Format: functional, cell-based
Conditions: not given

SMILES | Activity
COc1cc(F)ccc1-c1ncnc(Nc2cccc(C[S@](C)(=N)=O)c2)n1 [ATUVECICLIB] | Active

Molecular target: CDK2/Cyclin A2 (Homo sapiens, UniProt P24941)
Assay: Inhibition of CDK2/Cyclin A2 (unknown origin) preincubated for 10 mins followed by substrate addition and measured after 60 mins in presence of ATP by ADP-Glo reagent based assay
Format: protein-complex assay
Conditions: not given

SMILES | IC50 [nM]
O=C(NCCN1CCOCC1)c1ccc2cc1OCCOCCOc1cc(ccc1F)-c1nc(ncc1F)N2 | 10
O=C(NCCN1CCOCC1)c1ccc2cc1OCCCCCOc1cc(ccc1F)-c1nc(ncc1F)N2 | 66.2

Tested on: not listed separately
Assay: Induction of apoptosis in human Osimertinib-resistant NCI-H1975 cell assessed as late apoptotic cells at 500 nM measured after 16 hrs by Annexin V-FITC and PI staining based analysis (reference value: 2.84%)
Format: functional
Conditions: not given

SMILES | Activity [%]
COc1cc(F)ccc1-c1ncnc(Nc2cccc(C[S@](C)(=N)=O)c2)n1 [ATUVECICLIB] | 4.49

Tested on: not listed separately
Assay: Induction of apoptosis in human Osimertinib-resistant NCI-H1975 cell assessed as viable cells at 500 nM measured after 16 hrs by Annexin V-FITC and PI staining based analysis (reference value: 94.9%)
Format: functional
Conditions: read-out: Activity

SMILES | viability at 0.5 µM [%]
COc1cc(F)ccc1-c1ncnc(Nc2cccc(C[S@](C)(=N)=O)c2)n1 [ATUVECICLIB] | 91.3

Molecular target: CDK9/cyclin T1 (Homo sapiens, UniProt P50750)
Assay: Inhibition of CDK9/Cyclin-T1 (unknown origin) preincubated for 10 mins followed by substrate addition and measured after 60 mins in presence of ATP by ADP-Glo reagent based assay
Format: protein-complex assay
Conditions: not given

Sequence of CDK9/cyclin T1 (O60563 whole entry): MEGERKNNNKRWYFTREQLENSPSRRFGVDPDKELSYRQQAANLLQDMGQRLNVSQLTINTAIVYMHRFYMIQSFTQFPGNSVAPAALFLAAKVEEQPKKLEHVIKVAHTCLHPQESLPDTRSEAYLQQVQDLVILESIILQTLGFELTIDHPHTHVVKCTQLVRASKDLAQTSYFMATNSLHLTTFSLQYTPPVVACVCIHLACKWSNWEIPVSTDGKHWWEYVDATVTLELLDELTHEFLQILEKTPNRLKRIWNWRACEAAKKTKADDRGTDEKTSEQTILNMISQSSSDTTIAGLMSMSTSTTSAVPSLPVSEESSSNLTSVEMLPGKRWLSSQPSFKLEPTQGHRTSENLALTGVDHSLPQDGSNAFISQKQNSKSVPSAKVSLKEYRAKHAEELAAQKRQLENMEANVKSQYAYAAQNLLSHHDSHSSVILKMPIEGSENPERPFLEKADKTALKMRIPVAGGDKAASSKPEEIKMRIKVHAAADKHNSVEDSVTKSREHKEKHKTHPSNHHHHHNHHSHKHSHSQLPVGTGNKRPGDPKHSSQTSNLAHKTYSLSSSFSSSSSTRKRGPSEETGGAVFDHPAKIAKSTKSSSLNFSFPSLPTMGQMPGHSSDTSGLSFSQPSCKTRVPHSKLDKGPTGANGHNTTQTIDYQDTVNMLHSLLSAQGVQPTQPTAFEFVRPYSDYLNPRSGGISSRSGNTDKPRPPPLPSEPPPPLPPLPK
Sequence of CDK9/cyclin T1 (P50750 whole entry): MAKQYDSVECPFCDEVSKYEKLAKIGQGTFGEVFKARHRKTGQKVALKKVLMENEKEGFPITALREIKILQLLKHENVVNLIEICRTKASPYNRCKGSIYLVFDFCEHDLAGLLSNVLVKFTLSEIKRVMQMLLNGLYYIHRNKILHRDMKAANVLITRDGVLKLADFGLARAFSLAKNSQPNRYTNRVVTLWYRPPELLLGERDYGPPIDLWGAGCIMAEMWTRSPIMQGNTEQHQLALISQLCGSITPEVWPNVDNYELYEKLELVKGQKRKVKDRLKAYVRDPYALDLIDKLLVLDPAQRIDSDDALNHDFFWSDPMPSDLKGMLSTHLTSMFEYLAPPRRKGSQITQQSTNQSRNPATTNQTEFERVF

SMILES | IC50 [nM]
O=C(NCCN1CCOCC1)c1ccc2cc1OCCOCCOc1cc(ccc1F)-c1nc(ncc1F)N2 | 2.1
O=C(NCCN1CCOCC1)c1ccc2cc1OCCCCCOc1cc(ccc1F)-c1nc(ncc1F)N2 | 1.1

Tested on: not listed separately
Assay: Induction of apoptosis in human Osimertinib-resistant NCI-H1975 cell assessed as late apoptotic cells at 2000 nM measured after 16 hrs by Annexin V-FITC and PI staining based analysis (reference value: 2.84%)
Format: functional
Conditions: not given

SMILES | Activity [%]
COc1cc(F)ccc1-c1ncnc(Nc2cccc(C[S@](C)(=N)=O)c2)n1 [ATUVECICLIB] | 3.66

Tested on: not listed separately
Assay: Downregulation of Mcl-1 in human NCI-H1975 cells at 500 nM relative to control
Format: functional
Conditions: not given

SMILES | Activity [%]
O=C(NCCN1CCOCC1)c1ccc2cc1OCCCCCOc1cc(ccc1F)-c1nc(ncc1F)N2 | 73.4

Tested on: not listed separately
Assay: Induction of apoptosis in human Osimertinib-resistant NCI-H1975 cell assessed as early apoptotic cells at 500 nM measured after 16 hrs by Annexin V-FITC and PI staining based analysis (reference value: 1.78%)
Format: functional
Conditions: not given

SMILES | Activity [%]
COc1cc(F)ccc1-c1ncnc(Nc2cccc(C[S@](C)(=N)=O)c2)n1 [ATUVECICLIB] | 3.16

Tested on: not listed separately
Assay: cells
Conditions: Homo sapiens, Osimertinib-resistant HCC827AR cell, 72 h

SMILES | IC50 [nM]
COc1cc(F)ccc1-c1ncnc(Nc2cccc(C[S@](C)(=N)=O)c2)n1 [ATUVECICLIB] | 990

Tested on: not listed separately
Assay: Induction of apoptosis in human Osimertinib-resistant NCI-H1975 cell assessed as early apoptotic cells at 125 nM measured after 16 hrs by Annexin V-FITC and PI staining based analysis (Rvb =1.78%)
Format: functional
Conditions: not given

SMILES | Activity [%]
C=CC(=O)Nc1cc(Nc2nccc(-c3cn(C)c4ccccc34)n2)c(OC)cc1N(C)CCN(C)C [OSIMERTINIB] | 2.52

Tested on: NCI-H1975
Assay: Downregulation of Mcl-1 level in human Osimertinib-resistant NCI-H1975 cell at upto 0.5 uM measured after 8 hrs by Western blotting analysis
Format: functional, cell-based
Conditions: not given

SMILES | Activity
C=CC(=O)Nc1cc(Nc2nccc(-c3cn(C)c4ccccc34)n2)c(OC)cc1N(C)CCN(C)C [OSIMERTINIB] | inactive

Tested on: Osimertinib-resistant HCC827AR cell
Assay: Downregulation of Mcl-1 level in human Osimertinib-resistant HCC827 cell at upto 0.5 uM measured after 8 hrs by Western blotting analysis
Format: functional, cell-based
Conditions: not given

SMILES | Activity
C=CC(=O)Nc1cc(Nc2nccc(-c3cn(C)c4ccccc34)n2)c(OC)cc1N(C)CCN(C)C [OSIMERTINIB] | inactive

Molecular target: Tyrosine-protein kinase JAK2 (Homo sapiens) (UniProt O60674)
Assay: Inhibition of JAK2 (unknown origin) at 100 nM preincubated for 10 mins followed by substrate addition and measured after 60 mins in presence of ATP by ADP-Glo reagent based assay relative to control
Conditions: time 70.0 min

Sequence of Tyrosine-protein kinase JAK2 (Homo sapiens) (O60674 whole entry): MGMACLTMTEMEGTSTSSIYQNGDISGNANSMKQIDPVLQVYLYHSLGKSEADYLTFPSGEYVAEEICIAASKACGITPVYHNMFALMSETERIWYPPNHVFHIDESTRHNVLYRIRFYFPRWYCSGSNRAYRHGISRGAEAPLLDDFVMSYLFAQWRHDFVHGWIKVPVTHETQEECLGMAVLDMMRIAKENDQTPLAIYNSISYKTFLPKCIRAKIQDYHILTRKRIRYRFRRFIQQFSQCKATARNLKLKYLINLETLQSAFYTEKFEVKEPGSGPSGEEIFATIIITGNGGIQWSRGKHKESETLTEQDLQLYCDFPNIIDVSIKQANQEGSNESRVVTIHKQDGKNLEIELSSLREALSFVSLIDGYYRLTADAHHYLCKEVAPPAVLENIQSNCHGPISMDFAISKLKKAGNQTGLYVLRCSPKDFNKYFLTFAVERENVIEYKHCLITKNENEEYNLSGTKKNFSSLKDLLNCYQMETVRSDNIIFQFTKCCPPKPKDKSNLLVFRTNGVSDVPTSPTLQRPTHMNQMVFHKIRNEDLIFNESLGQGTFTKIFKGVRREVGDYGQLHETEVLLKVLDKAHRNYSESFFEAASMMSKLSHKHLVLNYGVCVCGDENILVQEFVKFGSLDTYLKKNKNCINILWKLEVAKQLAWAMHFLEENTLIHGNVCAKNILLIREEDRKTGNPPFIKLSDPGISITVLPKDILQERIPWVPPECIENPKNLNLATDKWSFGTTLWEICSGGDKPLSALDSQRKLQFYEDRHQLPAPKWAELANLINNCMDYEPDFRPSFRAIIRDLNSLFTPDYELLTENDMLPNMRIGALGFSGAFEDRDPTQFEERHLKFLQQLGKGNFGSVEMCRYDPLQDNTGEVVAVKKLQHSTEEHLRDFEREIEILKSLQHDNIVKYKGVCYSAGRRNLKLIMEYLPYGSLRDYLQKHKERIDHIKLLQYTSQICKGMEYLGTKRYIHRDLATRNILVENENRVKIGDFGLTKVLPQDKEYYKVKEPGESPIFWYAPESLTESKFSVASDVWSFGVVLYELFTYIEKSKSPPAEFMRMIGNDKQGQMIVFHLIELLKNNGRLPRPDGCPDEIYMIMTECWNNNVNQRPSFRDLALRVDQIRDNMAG

SMILES | inhibition [%]
O=C(NCCN1CCOCC1)c1ccc2cc1OCCOCCOc1cc(ccc1F)-c1nc(ncc1F)N2 | 71.4
O=C(NCCN1CCOCC1)c1ccc2cc1OCCCCCOc1cc(ccc1F)-c1nc(ncc1F)N2 | 56.5

Tested on: not listed separately
Assay: Induction of apoptosis in human Osimertinib-resistant NCI-H1975 cell assessed as viable cells at 125 nM measured after 16 hrs by Annexin V-FITC and PI staining based analysis (reference value: 94.9%)
Format: functional
Conditions: read-out: Activity

SMILES | viability at 0.125 µM [%]
C=CC(=O)Nc1cc(Nc2nccc(-c3cn(C)c4ccccc34)n2)c(OC)cc1N(C)CCN(C)C [OSIMERTINIB] | 92.4

Tested on: not listed separately
Assay: Induction of apoptosis in human Osimertinib-resistant NCI-H1975 cell assessed as viable cells at 2000 nM measured after 16 hrs by Annexin V-FITC and PI staining based analysis (reference value: 94.9%)
Format: functional
Conditions: read-out: Activity

SMILES | viability at 2 µM [%]
COc1cc(F)ccc1-c1ncnc(Nc2cccc(C[S@](C)(=N)=O)c2)n1 [ATUVECICLIB] | 91.9

Tested on: NCI-H1975
Assay: Downregulation of Mcl-1 level in human NCI-H1975 cells measured after 8 hrs by Western blotting analysis
Format: functional, cell-based
Conditions: dose <= 0.5 µM

SMILES | Activity
C=CC(=O)Nc1cc(Nc2nccc(-c3cn(C)c4ccccc34)n2)c(OC)cc1N(C)CCN(C)C [OSIMERTINIB] | Dose-Dependent Effect

Tested on: not listed separately
Assay: Induction of apoptosis in human Osimertinib-resistant NCI-H1975 cell assessed as early apoptotic cells at 2000 nM measured after 16 hrs by Annexin V-FITC and PI staining based analysis (reference value: 1.78%)
Format: functional
Conditions: not given

SMILES | Activity [%]
COc1cc(F)ccc1-c1ncnc(Nc2cccc(C[S@](C)(=N)=O)c2)n1 [ATUVECICLIB] | 2.58

Tested on: not listed separately
Assay: Induction of apoptosis in human Osimertinib-resistant NCI-H1975 cell assessed as necrotic cells at 500 nM measured after 16 hrs by Annexin V-FITC and PI staining based analysis (reference value: 0.50%)
Format: functional
Conditions: not given

SMILES | Activity [%]
COc1cc(F)ccc1-c1ncnc(Nc2cccc(C[S@](C)(=N)=O)c2)n1 [ATUVECICLIB] | 1.06

Tested on: NCI-H1975
Assay: Antiproliferative activity against human NCI-H1975 cells incubated for 72 hrs by MTT assay
Format: functional, cell-based
Conditions: NCI-H1975, 72 h

SMILES | IC50 [nM]
O=C(NCCN1CCOCC1)c1ccc2cc1OCCOCCOc1cc(ccc1F)-c1nc(ncc1F)N2 | 54
O=C(NCCN1CCOCC1)c1ccc2cc1OCCCCCOc1cc(ccc1F)-c1nc(ncc1F)N2 | 115

Tested on: HCC827
Assay: Downregulation of Mcl-1 level in human HCC827 cells measured after 8 hrs by Western blotting analysis
Format: functional, cell-based
Conditions: dose <= 0.5 µM

SMILES | Activity
C=CC(=O)Nc1cc(Nc2nccc(-c3cn(C)c4ccccc34)n2)c(OC)cc1N(C)CCN(C)C [OSIMERTINIB] | Dose-Dependent Effect

Tested on: not listed separately
Assay: Induction of apoptosis in human Osimertinib-resistant NCI-H1975 cell assessed as necrotic cells at 2000 nM measured after 16 hrs by Annexin V-FITC and PI staining based analysis (reference value: 0.50%)
Format: functional
Conditions: not given

SMILES | Activity [%]
COc1cc(F)ccc1-c1ncnc(Nc2cccc(C[S@](C)(=N)=O)c2)n1 [ATUVECICLIB] | 1.84
